Like-named read-outs stand apart in the source and are kept apart here.
Experiments:
[1] = molecular target: T1, NEP (Homo sapiens, UniProt P08473); experiment: QFS assay of Aβ-degrading enzymes: NEP (Example 6); assay type: biochemical
T1 construct: purchased R & D systems 1182-ZNC-010
Protocol: (§1) Plate reader-based enzyme assays were performed using a quenched fluorescent substrate (QFS) in a 96-well format using a SpectraMAX M4 Microplate reader (Molecular Devices). The increase in fluorescence following addition of QFS (40 μM) was taken as evidence of enzyme activity. Fluorescence was monitored over 2 h at 37° C. using κEx=320 nm and λEm=405 nm. Assays were conducted in black 96-well plates. Specific enzyme activity was expressed as a rate of substrate cleavage calculated using a standard curve of 7-methoxy-coumarin-4-acetic acid.
(§2) In all plate reader-based enzyme assays using QFS, the reaction rate (μmol of substrate cleaved/min) was calculated using linear regression analysis (GraphPad Prism software version 8.01). The reaction rates calculated were used to generate the enzyme kinetic parameters Vmax and Km through non-linear regression analysis (GraphPad Prism software, version 8.01; Michaelis-Menten equation). Where indicated, enzyme activity in the presence of peptide was expressed as a % of the enzyme alone. Data were expressed as mean±SEM and statistical significance was determined using t-tests or one-way ANOVAs followed by Tukey's post-hoc test. P<0.05 was considered as statistically significant. In all assays conducted using 96-well plates, the reaction mixtures in each well were considered an independent experiment.
(§3) SEQ ID NO:2 was assessed in a QFS assay against enzymes NEP, ECE1, ECE2, ACE1, ACE2, IDE and MMP-2 using the method in Example 2 and the following procedure. NEP, ACE1, ECE2 (0.05 ng/μL), ACE2, IDE (0.10 ng/μL), and ECE1 (6.4 ng/μL) were incubated with SEQ ID NO:2 (0.9-26 μM) or scrambled control (9 μM) for 1 h at 37° C. Prior to use, MMP2 (0.50 ng/μL) was activated using p-aminophenylmercuric acetate to a final concentration of 100 μM for 1 h at 37° C. Following activation, MMP2 was incubated with SEQ ID NO:2 for 1 h at 37° C. before adding the appropriate QFS.

[2] = molecular target: T2, ACE1 (Homo sapiens, UniProt P12821); experiment: QFS assay of Aβ-degrading enzymes: ACE1 (Example 6); assay type: biochemical
T2 construct: purchased Sigma Aldrich SRP6270-10UG
T2 sequence (P12821 30-1306): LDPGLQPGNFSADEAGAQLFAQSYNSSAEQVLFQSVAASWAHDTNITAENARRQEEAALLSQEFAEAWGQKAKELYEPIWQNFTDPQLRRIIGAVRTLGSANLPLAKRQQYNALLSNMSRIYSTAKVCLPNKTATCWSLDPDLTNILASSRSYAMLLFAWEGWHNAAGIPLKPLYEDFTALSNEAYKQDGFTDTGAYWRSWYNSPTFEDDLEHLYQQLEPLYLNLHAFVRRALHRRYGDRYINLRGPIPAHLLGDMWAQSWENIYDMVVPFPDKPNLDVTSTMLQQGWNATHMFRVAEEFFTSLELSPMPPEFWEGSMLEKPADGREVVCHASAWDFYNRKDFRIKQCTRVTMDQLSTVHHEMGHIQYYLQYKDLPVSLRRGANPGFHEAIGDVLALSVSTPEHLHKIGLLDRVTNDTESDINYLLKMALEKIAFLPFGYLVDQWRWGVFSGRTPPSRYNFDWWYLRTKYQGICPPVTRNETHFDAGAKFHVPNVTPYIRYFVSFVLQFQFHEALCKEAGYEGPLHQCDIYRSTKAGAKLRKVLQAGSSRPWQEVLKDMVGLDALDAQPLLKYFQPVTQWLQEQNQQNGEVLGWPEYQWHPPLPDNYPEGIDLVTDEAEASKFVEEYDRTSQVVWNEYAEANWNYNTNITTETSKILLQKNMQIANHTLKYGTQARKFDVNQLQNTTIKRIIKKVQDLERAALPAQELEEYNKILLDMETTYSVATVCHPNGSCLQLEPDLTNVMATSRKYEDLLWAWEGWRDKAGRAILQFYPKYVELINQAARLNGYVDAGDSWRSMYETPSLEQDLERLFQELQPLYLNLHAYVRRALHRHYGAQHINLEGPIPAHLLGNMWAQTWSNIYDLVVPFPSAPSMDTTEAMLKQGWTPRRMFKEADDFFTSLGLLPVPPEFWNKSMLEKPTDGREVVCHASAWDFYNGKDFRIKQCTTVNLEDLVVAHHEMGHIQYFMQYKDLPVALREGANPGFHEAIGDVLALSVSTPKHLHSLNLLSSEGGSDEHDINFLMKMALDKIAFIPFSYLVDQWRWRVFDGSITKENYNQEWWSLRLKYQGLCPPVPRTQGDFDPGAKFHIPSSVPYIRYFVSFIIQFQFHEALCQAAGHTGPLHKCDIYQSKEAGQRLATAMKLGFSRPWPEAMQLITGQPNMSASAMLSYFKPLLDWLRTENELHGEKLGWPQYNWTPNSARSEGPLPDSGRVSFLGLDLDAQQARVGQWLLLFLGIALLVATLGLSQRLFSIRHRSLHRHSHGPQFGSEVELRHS
Protocol: as §1, §2, §3

[3] = test system: Ang II-induced expression of IL-6 and Collagen III in EA.hy926 cells; experiment: Ang II-induced expression of IL-6 and Collagen III in EA.hy926 cells, western blotting (Example 9); assay type: cell-based; details: 24 h
Protocol: EA.hy926 cells (passage 40) were seeded at a density of 1×10^6 cells/mL. After 24 hours, cells were incubated overnight in reduced serum media. Cells were then treated over 24 h as follows: • 1. Vehicle control • 2. Ang II (10 nM) • 3. […] Ang II (10 nM)+rhACE2 (0.05 ng/μL) • 5.
Following incubation, cells were lysed using lysis buffer (Thermo Fisher Scientific, Cat #89900) containing 1% protease inhibitor (Thermo Fisher Scientific, Cat #1861278). Cell lysate was centrifuged at 13,000 rpm for 10 min. Protein concentration in the supernatant was determined by NanoDrop (Thermo Fisher Scientific, Cat #ND-1000). Supernatants were stored at −30° C. until analysed.
Samples were diluted in SDS-PAGE reducing sample buffer (Bio-Rad Laboratories, Cat #1610747; California, USA) containing 1% β-mercaptoethanol (Bio-Rad Laboratories, Cat #221610710) to reach a final concentration of […]. Prior to loading, samples were heated at 95° C. for 5 min. Samples were loaded into the wells alongside the molecular weight marker (Life Technologies, Cat #LC5800; California, USA). Electrophoresis was conducted at 200 V for 40 min in 1× running buffer. Following protein separation by SDS-PAGE, proteins were blotted onto nitrocellulose membranes at 100 V for 1 h in 1× transfer buffer. The membranes were then blocked in 5% skim milk in 1× Tris-buffered saline (TBST) containing 0.05% Tween 20 (Thermo Fisher Scientific, Cat #28352) for 1 h at room temperature. The membranes were incubated with IL-6 (1:500; Thermo Fisher Scientific, Cat #700480) or collagen III (1:500; Invitrogen, Cat #PA5-27828) primary antibodies while rocking at 4° C. overnight. Membranes were then probed with secondary antibody conjugated with horseradish peroxidase (HRP) (1:6000) for 1 h at room temperature. The HRP-labelled proteins were detected using chemiluminescence SuperSignal™ ECL Western Blotting Substrate (Thermo Fisher Scientific, Cat #34577) at 1:1 ratio. Beta-actin was used as a loading control. Protein bands were analysed using ImageJ (version 1.51) and band density was normalised with the respective beta-actin.

[4] = test system: SARS-CoV-2; assay type: cell-based; details: post-treatment, Vero cells; for IL-6 expression compared to PBS: normalised to GAPDH

T1 sequence (P08473 whole entry): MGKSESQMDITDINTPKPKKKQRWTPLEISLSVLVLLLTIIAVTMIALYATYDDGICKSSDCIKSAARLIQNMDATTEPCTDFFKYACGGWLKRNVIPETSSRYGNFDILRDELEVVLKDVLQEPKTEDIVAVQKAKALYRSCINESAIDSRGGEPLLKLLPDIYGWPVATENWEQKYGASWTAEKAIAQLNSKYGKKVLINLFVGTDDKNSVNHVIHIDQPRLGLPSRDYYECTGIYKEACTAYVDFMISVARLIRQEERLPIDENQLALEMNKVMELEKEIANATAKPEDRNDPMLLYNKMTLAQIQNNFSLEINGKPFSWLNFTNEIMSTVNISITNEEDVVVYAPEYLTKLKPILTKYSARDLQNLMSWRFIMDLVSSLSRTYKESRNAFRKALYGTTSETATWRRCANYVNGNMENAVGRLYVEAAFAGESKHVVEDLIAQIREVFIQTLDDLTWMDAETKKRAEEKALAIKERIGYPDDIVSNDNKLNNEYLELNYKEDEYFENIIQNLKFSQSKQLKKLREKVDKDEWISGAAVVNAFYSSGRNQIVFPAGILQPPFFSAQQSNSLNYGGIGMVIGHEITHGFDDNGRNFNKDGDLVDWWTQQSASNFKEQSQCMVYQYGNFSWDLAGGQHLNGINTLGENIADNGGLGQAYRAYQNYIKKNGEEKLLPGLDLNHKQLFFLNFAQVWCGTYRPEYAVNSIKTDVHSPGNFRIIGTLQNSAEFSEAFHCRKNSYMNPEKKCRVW

H-SLFELGKMIL-NH2 [SEQ ID NO:2, H2N-SLFELGKMIL-NH2]
submaximal concentration against NEP [1]: 9 µM
NEP activity compared with respective enzyme alone ([1]; peptide 2 μM (FIG. 2c)): significantly increased
activity of NEP as % of enzyme alone controls ([1]; peptide 9 μM): 380%
NEP activity, concentration dependence ([1]; peptide 0.9-26 μM): increased the activity
ACE1 activity compared with respective enzyme alone ([2]; peptide 2 μM (FIG. 2c)): significantly increased
ACE1 activity compared with respective enzyme alone ([2]; peptide 9 μM, significantly less compared with ACE2 and NEP): significantly higher
ACE1 activity, concentration dependence ([2]; peptide 0.9-26 μM): increased the activity
Collagen III expression compared to cells treated with Ang II alone ([3]; Ang II 10 nM plus 2A 26 μM and/or ACE2 0.05 ng/μL): significantly lower
IL-6 expression compared to cells treated with Ang II alone ([3]; Ang II 10 nM plus peptide 26 μM and/or rhACE2 0.05 ng/μL): significantly lower
Collagen III expression ([3]; EA.hy926 cells, Ang II 10 nM alone, or Ang II and 2A (26 μM)): 28±6%
viral RNA compared to PBS ([4]; 200 ng/μL): significantly reduced
IL-6 expression compared to PBS ([4]; 200 ng/μL): significantly reduced
viral RNA compared to PBS ([4]; 400 ng/μL): significantly reduced
viral titre compared to PBS ([4]; 400 ng/μL): significantly reduced
IL-6 expression compared to PBS ([4]; 400 ng/μL): significantly reduced

From patent publication US20240002441A1, “PEPTIDES AND USES THEREOF IN MODULATION OF AMYLOID-BETA PROTEIN DEGRADING PROTEASES” (priority 2020, published 2024)
